“And” between values parts separate entries of the source, which are not always exact repeats. Equal values may be shown once. Toxic doses and inconclusive results are not listed. Rule as the data show it: active = T/C of 150% or more; inactive = T/C below 125%.
Test system: L1210 leukemia ip in BDF1 mice, survival T/C
Assay: NCI In Vivo Anticancer Drug Screen. Data for tumor model L1210 Leukemia (intraperitoneal) in B6D2F1 (BDF1) mice
Settings: endpoint: mean survival time, higher = longer survival
Procedure, shortened: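 Tumor was transplanted into mice, which were then dosed with test compound or vehicle alone. Survival was recorded for each group, and the treated figure was expressed relative to the control figure.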

[1] = dose: 100.0 mg/kg/injection, schedule: Q04DX003 (ip), vehicle: saline
[2] = dose: 200.0 mg/kg/injection, schedule: Q04DX003 (ip), vehicle: saline
[3] = dose: 6.25 mg/kg/injection, schedule: Q01DX009 (ip), vehicle: saline
[4] = dose: 12.5 mg/kg/injection, schedule: Q01DX009 (ip), vehicle: saline
[5] = dose: 25.0 mg/kg/injection, schedule: Q01DX009 (ip), vehicle: saline
[6] = dose: 100.0 mg/kg/injection, schedule: Q04DX003 (ip), vehicle: Klucel (hydroxypropylcellulose) (HPC)
[7] = dose: 200.0 mg/kg/injection, schedule: Q04DX003 (ip), vehicle: Klucel (hydroxypropylcellulose) (HPC)
[8] = dose: 400.0 mg/kg/injection, schedule: Q04DX003 (ip), vehicle: Klucel (hydroxypropylcellulose) (HPC)
[9] = dose: 100.0 mg/kg/injection, schedule: Q01DX001 (ip), vehicle: Klucel (hydroxypropylcellulose) (HPC)
[10] = dose: 100.0 mg/kg/injection, schedule: Q01DX009 (ip), vehicle: Klucel (hydroxypropylcellulose) (HPC)
[11] = dose: 200.0 mg/kg/injection, schedule: Q01DX009 (ip), vehicle: Klucel (hydroxypropylcellulose) (HPC)
[12] = dose: 50.0 mg/kg/injection, schedule: Q04DX003 (ip), vehicle: Klucel (hydroxypropylcellulose) (HPC)
[13] = dose: 25.0 mg/kg/injection, schedule: Q01DX009 (ip), vehicle: Klucel (hydroxypropylcellulose) (HPC)
[14] = dose: 50.0 mg/kg/injection, schedule: Q01DX009 (ip), vehicle: Klucel (hydroxypropylcellulose) (HPC)

Measured: T/C

CNC(=O)Nc1ccncc1
inactive: dose: 100.0 mg/kg/injection, schedule: Q04DX003 (ip), vehicle: saline with Tween-80 96 % of control | dose: 200.0 mg/kg/injection, schedule: Q04DX003 (ip), vehicle: saline with Tween-80 102 % of control | dose: 400.0 mg/kg/injection, schedule: Q04DX003 (ip), vehicle: saline with Tween-80 91 % of control

CCCCCCCCCC[n+]1cccc(C#N)c1
inactive: dose: 5.0 mg/kg/injection, schedule: Q01DX009 (ip), vehicle: saline 109 % of control | dose: 10.0 mg/kg/injection, schedule: Q01DX001 (ip), vehicle: saline 100 % of control | dose: 10.0 mg/kg/injection, schedule: Q01DX009 (ip), vehicle: saline 98 % of control | dose: 10.0 mg/kg/injection, schedule: Q04DX003 (ip), vehicle: saline 98 % of control | dose: 20.0 mg/kg/injection, schedule: Q01DX001 (ip), vehicle: saline 95 % of control | dose: 20.0 mg/kg/injection, schedule: Q01DX009 (ip), vehicle: saline 93 % of control | dose: 20.0 mg/kg/injection, schedule: Q04DX003 (ip), vehicle: saline 93 % of control | dose: 40.0 mg/kg/injection, schedule: Q01DX001 (ip), vehicle: saline 93 % of control | dose: 40.0 mg/kg/injection, schedule: Q04DX003 (ip), vehicle: saline 94 % of control

Cc1cccc2c1C(=S)NC2=O
inactive: dose: 100.0 mg/kg/injection, schedule: Q04DX002 (ip), vehicle: saline with Tween-80 103 % of control | dose: 200.0 mg/kg/injection, schedule: Q04DX002 (ip), vehicle: saline with Tween-80 100 % of control | dose: 400.0 mg/kg/injection, schedule: Q04DX002 (ip), vehicle: saline with Tween-80 89 % of control

CCCCCC(/C=C/C1C=CC(=O)C1C/C=C/CCCC(=O)OC)OC(C)=O (configuration not stated)
inactive: dose: 100.0 mg/kg/injection, schedule: Q01DX009 (ip), vehicle: saline with Tween-80 100 % of control | dose: 200.0 mg/kg/injection, schedule: Q01DX009 (ip), vehicle: saline with Tween-80 97 % of control

O=C(/C(Br)=C/c1ccccc1)c1ccccc1
inactive: dose: 50.0 mg/kg/injection, schedule: Q01DX009 (ip), vehicle: other 103 % of control | dose: 100.0 mg/kg/injection, schedule: Q01DX009 (ip), vehicle: other 105 % of control | dose: 200.0 mg/kg/injection, schedule: Q01DX009 (ip), vehicle: other 100 % of control

CCCN(CCC)CCC(=O)O
inactive: dose: 100.0 mg/kg/injection, schedule: Q01DX009 (ip), vehicle: saline 100 % of control | [1] 97 % of control | dose: 200.0 mg/kg/injection, schedule: Q01DX009 (ip), vehicle: saline 96 % of control | [2] 108 % of control | dose: 400.0 mg/kg/injection, schedule: Q01DX009 (ip), vehicle: saline 102 % of control | dose: 400.0 mg/kg/injection, schedule: Q04DX003 (ip), vehicle: saline 101 % of control

O=CC1(C(O)C2SCCCS2)SCCCS1 (configuration not stated)
inactive: dose: 100.0 mg/kg/injection, schedule: Q01DX001 (ip), vehicle: other 113 % of control | dose: 200.0 mg/kg/injection, schedule: Q01DX001 (ip), vehicle: other 101 % of control | dose: 400.0 mg/kg/injection, schedule: Q01DX001 (ip), vehicle: other 97 % of control

CC(=O)Nc1ccc(Oc2ccc(NC(C)=O)cc2)cc1
inactive: dose: 25.0 mg/kg/injection, schedule: Q04DX002 (ip), vehicle: saline 90 % of control | dose: 50.0 mg/kg/injection, schedule: Q04DX002 (ip), vehicle: saline 97 % of control | dose: 100.0 mg/kg/injection, schedule: Q04DX002 (ip), vehicle: saline 117 % of control

C=C(Cl)CSC(=S)N(CC)CC
inactive: dose: 50.0 mg/kg/injection, schedule: Q01DX009 (ip), vehicle: saline sonified 94 % of control | dose: 100.0 mg/kg/injection, schedule: Q01DX009 (ip), vehicle: saline sonified 94 % of control | [1] 105 % of control | dose: 200.0 mg/kg/injection, schedule: Q01DX009 (ip), vehicle: saline sonified 105 % of control | [2] 102 % of control

O=[N+]([O-])c1c(Cl)ccc2c(Cl)ccnc12
inactive: dose: 100.0 mg/kg/injection, schedule: Q04DX003 (ip), vehicle: gum acacia 111 % of control | dose: 200.0 mg/kg/injection, schedule: Q04DX003 (ip), vehicle: gum acacia 91 % of control

COC(=O)C(c1ccccc1)C1CCCCN1 (configuration not stated)
inactive: [3] 105 % of control | [4] 98 % of control | [5] 96 % of control | dose: 25.0 mg/kg/injection, schedule: Q04DX003 (ip), vehicle: saline 97 % of control | dose: 50.0 mg/kg/injection, schedule: Q01DX009 (ip), vehicle: saline 100 % of control | dose: 50.0 mg/kg/injection, schedule: Q04DX003 (ip), vehicle: saline 97 % of control | [1] 108 % of control

COc1cc(OC)c(NC(=O)NCCCl)cc1Cl
inactive: [6] 104 % of control | [7] 106 % of control | [8] 97 % of control

CC(=O)NC1CCC(CC(=O)O)CC1 (configuration not stated)
inactive: [9] 94 % of control and 96 % of control | [10] 98 % of control | [6] 92 % of control | dose: 200.0 mg/kg/injection, schedule: Q01DX001 (ip), vehicle: Klucel (hydroxypropylcellulose) (HPC) 94 % of control and 102 % of control | [11] 87 % of control | [7] 99 % of control | dose: 400.0 mg/kg/injection, schedule: Q01DX001 (ip), vehicle: Klucel (hydroxypropylcellulose) (HPC) 91 % of control and 94 % of control | [8] 95 % of control

CS(=O)(=O)OCCN(CCOS(C)(=O)=O)c1ccc(C=Nc2cc(Br)c(O)c(Br)c2)c(Cl)c1
inactive: [6] 98 % of control | [7] 98 % of control | [8] 97 % of control

CC(C)OC(=O)NC1C=CC=CC=C1
inactive: [12] 98 % of control | [6] 93 % of control | [7] 104 % of control | [8] 106 % of control

CCCCC(NC(=O)CN)C(=O)O (configuration not stated)
inactive: dose: 25.0 mg/kg/injection, schedule: Q01DX001 (ip), vehicle: Klucel (hydroxypropylcellulose) (HPC) 105 % of control | dose: 50.0 mg/kg/injection, schedule: Q01DX001 (ip), vehicle: Klucel (hydroxypropylcellulose) (HPC) 103 % of control | [9] 100 % of control

CCCCCCCCCCCCc1ccc2c(c1)CCc1ccccc1-2
inactive: dose: 100.0 mg/kg/injection, schedule: Q01DX001 (ip), vehicle: carboxymethylcellulose (CMC) 97 % of control | dose: 200.0 mg/kg/injection, schedule: Q01DX001 (ip), vehicle: carboxymethylcellulose (CMC) 92 % of control | dose: 400.0 mg/kg/injection, schedule: Q01DX001 (ip), vehicle: carboxymethylcellulose (CMC) 90 % of control

O=C(CCl)Nc1ccc([As](=O)(O)O)cc1
inactive: [13] 98 % of control | [14] 91 % of control | [12] 94 % of control | [6] 97 % of control

CC1(C)C2CCC([CH2][Hg][Cl])C1C2 (configuration not stated)
inactive: [3] 93 % of control | dose: 6.25 mg/kg/injection, schedule: Q04DX003 (ip), vehicle: other 103 % of control | [4] 91 % of control | dose: 12.5 mg/kg/injection, schedule: Q04DX003 (ip), vehicle: other 103 % of control | dose: 20.0 mg/kg/injection, schedule: Q01DX001 (ip), vehicle: Klucel (hydroxypropylcellulose) (HPC) 102 % of control | [5] 94 % of control | dose: 25.0 mg/kg/injection, schedule: Q04DX003 (ip), vehicle: other 106 % of control

NC(=O)NC(=O)NCc1ccccc1
inactive: dose: 100.0 mg/kg/injection, schedule: Q04DX002 (ip), vehicle: Klucel (hydroxypropylcellulose) (HPC) 98 % of control | dose: 200.0 mg/kg/injection, schedule: Q04DX002 (ip), vehicle: Klucel (hydroxypropylcellulose) (HPC) 94 % of control | dose: 400.0 mg/kg/injection, schedule: Q04DX002 (ip), vehicle: Klucel (hydroxypropylcellulose) (HPC) 94 % of control

c1ccc(CC2NCCc3c2[nH]c2ccccc32)cc1 (configuration not stated)
inactive: [13] 104 % of control | dose: 25.0 mg/kg/injection, schedule: Q04DX003 (ip), vehicle: Klucel (hydroxypropylcellulose) (HPC) 92 % of control | [14] 103 % of control | [10] 93 % of control | [6] 89 % of control | [11] 108 % of control | [7] 97 % of control | [8] 97 % of control
